| Structure (SMILES) | melting point |
| --- | --- |
| OB1OCc2ccc(Oc3ccc(Cl)cc3)cc21 [C20, 6-(4-Chlorophenoxy)-1,3-dihydro-1-hydroxy-2,1-benzoxaborole] | 119 to 130 °C |
| COc1ccc(Oc2ccc3c(c2)B(O)OC3)cc1 [C31, 6-(4-Methoxyphenoxy)-1,3-dihydro-1-hydroxy-2,1-benzoxaborole] | 126 to 129 °C |
| O=C(COc1ccc2c(c1)COB2O)N1CCCCC1 [C46, 2-(1-hydroxy-1,3-dihydrobenzo[c][1,2]oxaborol-5-yloxy)-1-(piperidin-1-yl)ethanone] | 158 to 163 °C |
| O=C(O)COc1ccc2c(c1)COB2O [C42, 2-(1-hydroxy-1,3-dihydrobenzo[c][1,2]oxaborol-5-yloxy)acetic acid] | 163 to 166 °C |
| OB1OCc2ccc(Sc3ccc(F)cc3)cc21 [C44, 6-(4-fluorophenylthio)benzo[c][1,2]oxaborol-1(3H)-ol] | 135 to 138 °C |
| O=S(=O)(c1ccccc1)N(c1ccc2c(c1)COB2O)S(=O)(=O)c1ccccc1 [C91, N-(1-hydroxy-1,3-dihydrobenzo[c][1,2]oxaborol-5-yl)-N-(phenylsulfonyl)benzenesulfonamide] | 142 to 152 °C |
| O=[N+]([O-])c1cc2c(cc1F)COB2O [C58, 5-fluoro-6-nitrobenzo[c][1,2]oxaborol-1(3H)-ol] | 162 to 167 °C |
| OB1OCc2ccc(F)cc21 [C13, 1,3-Dihydro-6-fluoro-1-hydroxy-2,1-benzoxaborole] | 110 to 117.5 °C |
| Cc1cc(Oc2ccc(C#N)cc2)ccc1B(O)O [C99, 4-(4-Cyanophenoxy)-2-Methylphenylboronic acid] | 161 to 165 °C |
| CC(=O)Nc1ccc2c(c1)B(O)OC2 [C63, N-(1-hydroxy-1,3-dihydrobenzo[c][1,2]oxaborol-6-yl)acetamide] | 176 to 185 °C |
| N#Cc1ccc(Oc2cccc3c2B(O)OC3)cc1 [C74, 4-(1-hydroxy-1,3-dihydrobenzo[c][1,2]oxaborol-7-yloxy)benzonitrile] | 148 to 153 °C |
| OB1OCc2ccc(Oc3ccc(C(F)(F)F)cc3)cc21 [C87, 6-(4-(trifluoromethyl)phenoxy)benzo[c][1,2]oxaborol-1(3H)-ol] | 98 to 105 °C |
| [O-][S+](c1ccc(Cl)cc1)c1ccc2c(c1)B(O)OC2 (stereo not shown) [C89, 6-(4-chlorophenylsulfinyl)benzo[c][1,2]oxaborol-1(3H)-ol] | 154 to 161 °C |
| OB1OCc2ccc(NCc3ccccc3)cc21 [C77, 6-(benzylamino)benzo[c][1,2]oxaborol-1(3H)-ol] | 126 to 133 °C |
| Cc1ccc2c(c1)COB2O [C8, 1,3-Dihydro-1-hydroxy-5-methyl-2,1-benzoxaborole] | 124 to 128 °C |
| N#CCCSc1cn(-c2ccc3c(c2)B(O)OC3)c2ccc(Cl)cc12 [C76, 3-(5-chloro-1-(1-hydroxy-1,3-dihydrobenzo[c][1,2]oxaborol-6-yl)-1H-indol-3-ylthio)propanenitrile] | > 225 °C |
| OB1OCc2ccc(Sc3cccs3)cc21 [C43, 6-(thiophen-2-ylthio)benzo[c][1,2]oxaborol-1(3H)-ol] | 99 to 104 °C |
| O=C(COc1ccc2c(c1)COB2O)N1CCN(c2ncccn2)CC1 [C47, 2-(1-hydroxy-1,3-dihydrobenzo[c][1,2]oxaborol-5-yloxy)-1-(4-(pyrimidin-2-yl)piperazin-1-yl)ethanone] | 190 to 195 °C |
| OB1OCc2ccc(N3CCN(c4ccccc4)CC3)cc21 [C53, 6-(4-phenylpiperazin-1-yl)benzo[c][1,2]oxaborol-1(3H)-ol] | 159 to 161 °C |
| Cc1cccc2c1B(O)OC2 [C65, 7-methylbenzo[c][1,2]oxaborol-1(3H)-ol] | 107 to 111 °C |
| OB1OCc2cc3c(cc21)COB3O [C60, 3,7-dihydro-1,5-dihydroxy-1H,3H-Benzo[1,2-c:4,5-c′]bis[1,2]oxaborole] | > 250 °C |
| Cc1ccc(Sc2ccc3c(c2)B(O)OC3)cc1 [C95, 6-(p-tolylthio)benzo[c][1,2]oxaborol-1(3H)-ol] | 139 to 144 °C |
| OB1OCc2cc3c(cc21)OCO3 [C69, 5,6-methylenedioxybenzo[c][1,2]oxaborol-1(3H)-ol.] | 185 to 189 °C |
| N#Cc1ccc(Oc2ccc(B(O)O)cc2)cc1 | 194 to 198 °C |
| CSc1ccc(Sc2ccc3c(c2)B(O)OC3)cc1 [C94, 6-(4-(methylthio)phenylthio)benzo[c][1,2]oxaborol-1(3H)-ol] | 117 to 120 °C |
| N#Cc1ccc(Oc2cccc(B(O)O)c2)cc1 [C98, 3-(4-Cyanophenoxy)phenylboronic acid] | 153 to 162 °C |
| CN(C)c1ccc2c(c1)B(O)OC2 [C51, 6-(dimethylamino)benzo[c][1,2]oxaborol-1(3H)-ol] | 120 to 123 °C |
| CCCCC(=O)c1cccc(COc2ccc3c(c2)COB3O)c1 [C45, 1-(3-((1-hydroxy-1,3-dihydrobenzo[c][1,2]oxaborol-5-yloxy)methyl)phenyl)pentan-1-one] | 96 to 98 °C |

| Structure (SMILES) | melting point |
| --- | --- |
| COc1ccc(Sc2ccc3c(c2)B(O)OC3)cc1 [C32, 6-(4-Methoxyphenylthio)-1,3-dihydro-1-hydroxy-2,1-benzoxaborole] | 95 to 100 °C |
| COc1ccc(S(=O)(=O)c2ccc3c(c2)B(O)OC3)cc1 [C33, 6-(4-Methoxyphenylsulfonyl)-1,3-dihydro-1-hydroxy-2,1-benzoxaborole] | 180 to 192 °C |
| OB1OCc2ccc(Sc3ccc(C(F)(F)F)cc3)cc21 [C92, 6-(4-(trifluoromethyl)phenylthio)benzo[c][1,2]oxaborol-1(3H)-ol] | 111 to 113 °C |
| CCOC(=O)COc1ccc2c(c1)COB2O [C41, Ethyl 2-(1-hydroxy-1,3-dihydrobenzo[c][1,2]oxaborol-5-yloxy)acetate] | 134 to 137 °C |
| COc1ccc2c(c1)c(SCCC#N)cn2-c1ccc2c(c1)B(O)OC2 [C73, 3-(1-(1-hydroxy-1,3-dihydrobenzo[c][1,2]oxaborol-6-yl)-5-methoxy-1H-indol-3-ylthio)propanenitrile] | 149 to 154 °C |
| OB1OCc2ccc(-n3cc(Sc4ccccc4)c4cc(Cl)ccc43)cc21 [C80, 6-(5-chloro-3-(phenylthio)-1H-indol-1-yl)benzo[c][1,2]oxaborol-1(3H)-ol] | 145 to 151 °C |
| OB1OCc2ccc(-n3ccc4ccccc43)cc21 [C55, 6-(1H-indol-1-yl)benzo[c][1,2]oxaborol-1(3H)-ol] | 135 to 140 °C |
| N#Cc1cccc(Oc2ccc3c(c2)B(O)OC3)c1 [C19, 6-(3-Cyanophenoxy)-1,3-dihydro-1-hydroxy-2,1-benzoxaborole] | 146 to 149 °C |
| OB1OCc2ccc(Oc3ccccc3)cc21 [C21, 6-Phenoxy-1,3-dihydro-1-hydroxy-2,1-benzoxaborole] | 95 to 99 °C |
| OB1OCc2cc(F)c(NCc3ccccc3)cc21 [C71, 6-(benzylamino)-5-fluorobenzo[c][1,2]oxaborol-1(3H)-ol] | 159 to 164 °C |
| OB1OCc2ccc(N3CCOCC3)cc21 [C56, 6-morpholinobenzo[c][1,2]oxaborol-1(3H)-ol] | 128 to 132 °C |
| OB1OCc2ccc(Sc3ccc(Cl)cc3)cc21 [C88, 6-(4-chlorophenylthio)benzo[c][1,2]oxaborol-1(3H)-ol] | 157 to 161 °C |
| O=S(=O)(c1ccc(Cl)cc1)c1ccc2c(c1)B(O)OC2 [C90, 6-(4-chlorophenylsulfonyl)benzo[c][1,2]oxaborol-1(3H)-ol] | 157 to 163 °C |
| COc1ccc2c(ccn2-c2ccc3c(c2)B(O)OC3)c1 [C68, 6-(5-methoxy-1H-indol-1-yl)benzo[c][1,2]oxaborol-1(3H)-ol] | 120 to 124 °C |
| OB1OCc2ccc(Sc3ccccc3)cc21 [C28, 6-Phenylthio-1,3-dihydro-1-hydroxy-2,1-benzoxaborole] | 121 to 124 °C |
| OCc1cc2c(cc1Br)COB2O [C59, 5-bromo-6-(hydroxymethyl)benzo[c][1,2]oxaborol-1(3H)-ol] | > 257 °C |
| N#CCCSc1cn(-c2ccc3c(c2)B(O)OC3)c2ccccc12 [C67, 3-(1-(1-hydroxy-1,3-dihydrobenzo[c][1,2]oxaborol-6-yl)-1H-indol-3-ylthio)propanenitrile] | 135 to 141 °C |
| OB1OCc2ccc(-n3cc(Sc4ccccc4)c4ccccc43)cc21 [C66, 6-(3-(phenylthio)-1H-indol-1-yl)benzo[c][1,2]oxaborol-1(3H)-ol] | 159 to 163 °C |
| CN(c1ccc2c(c1)COB2O)S(=O)(=O)c1ccccc1 [C30, 5-(N-Methyl-N-phenylsulfonylamino)-1,3-dihydro-1-hydroxy-2,1-benzoxaborole] | 85 to 95 °C |
| OCc1cccc2c1B(O)OC2 [C64, 7-(hydroxymethyl)benzo[c][1,2]oxaborol-1(3H)-ol] | 241 to 250 °C |
| OB1OCc2ccc(N(Cc3ccccc3)Cc3ccccc3)cc21 [C78, 6-(dibenzylamino)benzo[c][1,2]oxaborol-1(3H)-ol] | 115 to 123 °C |
| OB1OCc2cccc(F)c21 [C86, 7-fluorobenzo[c][1,2]oxaborol-1(3H)-ol] | 120 to 124 °C |
| OB1OCc2ccc(-n3ccc4cc(Cl)ccc43)cc21 [C75, 6-(5-chloro-1H-indol-1-yl)benzo[c][1,2]oxaborol-1(3H)-ol] | 149 to 154 °C |
| COc1ccc2c(c1)c(Sc1ccccc1)cn2-c1ccc2c(c1)B(O)OC2 [C72, 6-(5-methoxy-3-(phenylthio)-1H-indol-1-yl)benzo[c][1,2]oxaborol-1(3H)-ol] | 135 to 141 °C |
| OB1OCc2ccc(N3CCN(c4ccccn4)CC3)cc21 [C48, 6-(4-(pyridin-2-yl)piperazin-yl)benzo[c][1,2]oxaborol-1(3H)-ol] | 135 to 138 °C |
| N#Cc1cccc(COc2ccc3c(c2)COB3O)c1 [C96, 3-((1-hydroxy-1,3-dihydrobenzo[c][1,2]oxaborol-5-yloxy)methyl)benzonitrile] | 147 to 150 °C |
| COc1ccc2c(c1)COB2O [C7, 1,3-Dihydro-1-hydroxy-5-methoxy-2,1-benzoxaborole] | 102 to 104 °C |

Reference: US9682092B2, “Boron-containing small molecules as anti-inflammatory agents” (ANACOR PHARMACEUTICALS, INC., priority 2006, dated 2017)
